Results on 29 compounds are retold here after PubChem BioAssay (NCI).

SMILES strings stand for the structures. Several values for one entry are separate records, joined by “and”; a condition that tells them apart may be missing. Equal entries are not always repeated.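 Cells were grown in 96-well plates and exposed to each compound for 48 hours at five concentrations; endpoints were interpolated linearly between bracketing concentrations, or set to the highest concentration if not reached. GI50: concentration for 50% inhibition of growth. TGI is the concentration that stops growth completely.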 Some results are limits rather than exact numbers.

Common to all, as to assay: NCI-60 cell line screen, 48 h
Assay [1] deals with HOP-62 NSCLC.
In assay [2] the test system is UO-31 renal.
Assay [3] relates to SK-MEL-2 melanoma.
Assay [4] relates to K-562 leukemia.
Assay [5] deals with SNB-19 CNS.
Assay [6] deals with UACC-62 melanoma.
The subject of assay [7] is HCC-2998 colon.
Assay [8] has as its system RXF 393 renal.
Assay [9] relates to HT29 colon.
Assay [10] deals with DU-145 prostate.
Assay [11] relates to NCI/ADR-RES ovarian.

For the compound `CCOC(=O)c1ccn2c(c1)c(C#N)c1nc3ccccc3nc12`, the TGI in assay [1] is > 100 µM; in [2], > 100 µM; in assay [3] it was > 100 µM; in assay [4], > 100 µM; in assay [5] it was > 100 µM; in assay [6], 25.7 µM. Besides, the TGI in assay [7] is > 100 µM.

On to `C/C=C1/C(=Cc2[nH]c(C=c3[nH]/c(=C/C4=NC(=O)C(CC)=C4C)c(C)c3CCC(=O)O)c(CCC(=O)O)c2C)NC(=O)C1C` (stereo not given), for which the TGI is > 50 µM in assay [8]; 15.9 µM in assay [1]; 20.1 µM in assay [2]; 20.3 µM in assay [3]; > 50 µM in assay [4]; > 50 µM in assay [5]. The TGI in assay [9] is 49 µM; in [6] it was 20.3 µM; in assay [7] it was > 50 µM.

Consider `COC(=O)/C(=N\N)C(C(=O)C(=O)Nc1nc(=S)[nH][nH]1)c1nc2ccc([N+](=O)[O-])cc2[nH]c1=O` (stereo not given), for which the TGI in assay [8], in assay [1], in assay [2], in [3], in [4] and in assay [5] was > 100 µM each time. The TGI in assay [9], in [6] and in assay [7] was > 100 µM in each case.

Regarding `C/C(=C\CC/C=C(\C)CC/C=C(\C)CCC1SC1(C)C)CC/C=C(\C)CCC1OC1(C)C` (stereo not given), the TGI in assay [8], in [2], in assay [3], in assay [4], in assay [5] and in assay [9] was > 100 µM each time. Also, the TGI in assay [7] was > 100 µM.

As to `O=Cc1ccc(-c2ccc(S(=O)(=O)O)cc2)o1`, the TGI in assay [8], in assay [10], in assay [2], in assay [3], in [4] and in assay [11] was > 100 µM each time. In addition, the TGI in assay [5], in assay [9], in assay [6] and in assay [7] was > 100 µM in each case.

As to `COc1cc2c(cc1OC)[C@H]1C(COC(=O)Nc3ccccc3)CN1CC2` (stereo not given in full), the TGI in assay [8], in [1], in assay [2], in assay [3], in [4] and in assay [5] was > 100 µM in each case. In addition, the TGI in [9], in [6] and in assay [7] was > 100 µM each time.

As for `Cc1cc(C)c(C(=O)C(C)C(c2ccccc2)c2ccc(Cl)cc2)c(C)c1` (stereo not given), the TGI in assay [8], in assay [1], in [2], in [3], in assay [4] and in assay [5] was > 100 µM each time. Further, the TGI in [9] and in assay [6] was > 100 µM each time. Moreover, the GI50 in assay [3] was 9.38 µM and 32.1 µM; in [5] it was > 100 µM.

For the compound `CC(=O)OCC1=CC2CCC3C(C)(CCC[C@]3(C)COC(C)=O)C23CC[C@H]1C3` (stereo not given in full), the TGI in assay [8] is 93 µM; in assay [1], > 100 µM; in assay [2], > 100 µM; in [3] it was > 100 µM; in assay [4], 73.3 µM; in assay [5], > 100 µM. Moreover, the results for the TGI in [9], in [6] and in [7] were > 100 µM, > 100 µM and 86.3 µM, respectively.

Turning to `COC1(C)CNCC(C)(C)NC(=O)C(C)(OC)CNCC(C)(C)NC1=O` (stereo not given), the TGI in [8], in [1], in [2], in [3], in [4] and in assay [5] was > 100 µM throughout. In addition, the TGI in assay [9], in [6] and in assay [7] was > 100 µM each time.

Regarding `O=S(=O)(CF)OCCCCOS(=O)(=O)CF`, the TGI in assay [2], in assay [3], in assay [4], in assay [5], in [9] and in assay [6] was > 100 µM throughout.

In the case of `COC(=O)C(C#N)C1NC(=O)c2ccccc21` (stereo not given), the TGI in assay [8], in assay [1], in assay [2], in assay [4], in [5] and in assay [9] was > 100 µM throughout. Further, the TGI in assay [6] and in assay [7] was > 100 µM throughout.

Regarding `CCCCCCCCCCCCCCCCCCOCC(O)CO` (stereo not given), the TGI in assay [8] is > 24.1 µM; in [1], 22.7 µM; in assay [2], 25 µM; in assay [3], > 25 µM; in assay [4] it was > 25 µM; in assay [11], > 25 µM. Further, the TGI was > 25 µM in assay [5], > 15.8 µM in assay [9], > 25 µM in assay [6] and > 25 µM in [7].

For the compound `CC(=O)OCC1OC(n2c(O)c(N=NC(N)=S)c3ccc([N+](=O)[O-])cc32)C(OC(C)=O)C1OC(C)=O` (stereo not given), the TGI in [8] was 45.9 µM; in [1] it was > 100 µM; in assay [3] it was 47.2 µM; in assay [4] it was > 100 µM; in [5], > 100 µM; in assay [9] it was 96.2 µM. For the same compound, the TGI in assay [6] stood at 27.6 µM; in assay [7], 65.6 µM.

On to `CN1C(=O)N(c2nc3ccccc3[nH]2)C(C)(C)C1=O`, for which the TGI in assay [8], in [1], in assay [2], in assay [3], in assay [4] and in [5] was > 100 µM each time. The TGI in assay [9] and in assay [6] was > 100 µM each time.

In the case of `Clc1ccc(N2N=C(c3cccc(Nc4ccncc4)c3)CC2c2ccc(Br)cc2)cc1` (stereo not given), the GI50 in [8] was 1.62 µM; in assay [10], 1.8 µM; in assay [2] it was 1.41 µM; in assay [9], 1.91 µM; in [6], 1.77 µM. Besides, the TGI in [8] was 3.02 µM; in assay [10], 3.25 µM; in [2] it was 2.75 µM; in assay [9], 4.48 µM; in assay [6] it was 3.25 µM.

Turning to `CC(C)(C)OC(=O)C1/C(=C/CBr)CN1C(=O)OC(C)(C)C` (stereo not given), the TGI in assay [1] was 31.9 µM; in assay [2] it was 33.1 µM; in [4], 7.54 µM; in assay [11] it was 72.1 µM; in assay [5] it was 32.5 µM; in [9], > 100 µM. Further, the figures for the TGI in [6] and in assay [7] were 33.4 µM and 33.1 µM, respectively.

As to `COc1ccc(/C=C/c2nc(=S)[nH][nH]2)cc1OC`, the TGI in assay [8], in assay [2], in [3], in assay [4], in assay [5] and in assay [9] was > 100 µM in each case. The TGI in assay [6] and in assay [7] was > 100 µM each time.

With `CCC(=O)CCC1=Nc2nnc(CCCCc3nnc4n3C(=O)C(CCC(=O)CC)=N4)n2C1=O`, the TGI in assay [8], in [1], in assay [2], in assay [3], in [4] and in [5] was > 100 µM each time. Moreover, the TGI in assay [9], in assay [6] and in assay [7] was > 100 µM each time.

Consider `CCOC(=O)c1ccc(N(CCOS(=O)(=O)c2ccc(C)cc2)CCOS(=O)(=O)c2ccc(C)cc2)cc1`, for which the TGI is > 100 µM in assay [8]; > 100 µM in assay [2]; 66.8 µM in [3]; > 100 µM in assay [4]; > 100 µM in assay [11]; > 100 µM in assay [5]. For the same compound, the TGI in assay [9], in assay [6] and in [7] was > 100 µM throughout.

For the compound `CCOC(OC1=C(C#N)CCCC1)C(CC)[Se]c1ccccc1[N+](=O)[O-]` (stereo not given), the TGI in assay [8] is 65.7 µM; in assay [1], 88.8 µM; in assay [2] it was 80.5 µM; in [3], > 100 µM; in assay [4] it was > 100 µM; in assay [5], 72.5 µM. Besides, the values for the TGI in assay [9], in [6] and in assay [7] were 31.4 µM, 47 µM and 45.9 µM, respectively.

Take `Oc1ccc(/C=N/c2nccs2)c(O)c1`: the TGI in [8], in [10], in assay [1], in assay [2], in assay [11] and in assay [5] was > 100 µM each time. The TGI in assay [9], in [6] and in assay [7] was > 100 µM each time.

Take `CC(O)C1OC(n2ccc(=O)[nH]c2=O)CC1n1cncn1` (stereo not given): the TGI in assay [8], in assay [1], in assay [2], in assay [3], in assay [4] and in assay [5] was > 100 µM throughout. In addition, the TGI in assay [9], in [6] and in assay [7] was > 100 µM throughout.

For the compound `C[Si](C)(C)/C=C/CN1C(=O)CCC1=O`, the TGI in assay [2], in assay [3], in assay [4], in [5], in [9] and in assay [6] was > 100 µM throughout. Also, in [7], the TGI was > 100 µM.

Regarding `COc1nc2c(c(=O)[nH]1)N=C(c1ccc(Cl)cc1)CC(c1ccccc1)N2` (stereo not given), the TGI in assay [8] is 61.4 µM; in assay [10] it was > 100 µM; in assay [1] it was > 100 µM; in [2], > 100 µM; in assay [3], 60.1 µM; in assay [4], 67.1 µM. The TGI in assay [11] was 75.4 µM; in assay [5], > 100 µM; in [9] it was > 100 µM; in [6] it was 46.6 µM; in [7] it was > 100 µM.

In the case of `CC(C)=CCOc1ccc(-c2coc3cc4c(c(O)c3c2=O)C=CC(C)(C)O4)cc1`, the TGI in assay [8], in assay [1], in [2], in [4], in assay [5] and in [9] was > 100 µM throughout. The TGI in assay [7] is > 100 µM.

For the compound `C/C(=N/N)c1sc(-c2nc(C)c(/C(C)=N\N)s2)nc1C`, the TGI in [8], in assay [1], in assay [2], in [3], in assay [4] and in assay [5] was > 100 µM each time. The TGI in [9], in assay [6] and in assay [7] was > 100 µM throughout.

As to `O=C1C2C3C=C4c5ccccc5N(c5ccccc5)C4([C@@H]2C(=O)N1c1ccc(F)cc1)[C@H]1C(=O)N(c2ccc(F)cc2)C(=O)[C@@H]31` (stereo not given in full), the TGI is > 100 µM in assay [8]; 88.6 µM in assay [2]; > 100 µM in assay [3]; > 100 µM in [4]; > 100 µM in assay [5]; > 100 µM in assay [7].

For `CC1OC(CC2C=CCc3c(O)c4c(c(O)c32)C(=O)c2ccccc2C4=O)CC(NC(=O)C(F)(F)F)C1O` (stereo not given), the TGI in assay [8] came out at 7.77 µM; in [1], 19 µM; in [2] it was 42.7 µM; in assay [3] it was 30.2 µM; in assay [4], 20.6 µM; in assay [5], 18.7 µM. Also, the TGI in assay [9] was 40.5 µM; in assay [6], 17.4 µM; in assay [7], > 100 µM.

As to `O=C(CCN1CCCC1)c1ccc(Oc2ccc(F)cc2)cc1`, the TGI in assay [8] is 74.4 µM; in [10] it was > 100 µM; in [1], > 100 µM; in assay [2], > 100 µM; in [3], > 100 µM; in [4], > 100 µM. Besides, the TGI in assay [11], in assay [5], in assay [9], in assay [6] and in assay [7] was > 100 µM in each case.
